pEC50, pIC50: −log10 of the molar value.
Key:
[1] = target: T1, S1P2 (Homo sapiens, UniProt O95136); assay: S1P2 antagonist test, S1P2 CRE-bla CHO cells; type: cell-based; conditions: S1P2 CRE-BLA CHO cell line
T1 construct: expressed in transfected cells; host or cells: S1P2 CRE-bla CHO cells
Description: (§1) Since AD2900 is a sphingolipid analogue with properties that resemble those of S1P, we intended to examine its ability to interact with the S1P receptors. To delineate whether AD2900 can function as an agonistic or antagonistic compound to any of the S1P receptors, we used a high-throughput screening cell-based assay, employing cell lines stably transfected with human S1P receptors 1, 2, 3, 4, or 5 [37]. In this experiment, a compound with an IC50 or EC50 value ≤10 μM for a certain S1P receptor is considered active as an antagonist or an agonist, respectively. The results illustrate that AD2900 acts as an antagonist to all S1P receptors (Table 1, Supplementary Figure 3). […] No agonist activation was evident.
(§2) The S1P1 agonist test and S1P2, S1P3, S1P4, and S1P5 agonist and antagonist tests were conducted as previously described using S1P1 CRE-bla CHO cells, S1P2 CRE-bla CHO cells, S1P3 NFAT-bla CHO cells, Tango™ S1P4 (EDG6)-bla U-2 OS cells, and Tango™ S1P5 ([…])-bla U-2 OS cells. The S1P1 antagonist assay was carried out according to the manufacturer’s instructions using a Tango™ S1P1 (EDG1)-bla U-2 OS Cell-Based Assay (Invitrogen, NY, USA).

[2] = target: T2, S1P4 (Homo sapiens, UniProt O95977); assay: S1P4 agonist test, Tango S1P4 (EDG6)-bla U-2 OS cells; type: cell-based; conditions: S1P4 TANGO U-2 OS cell line
T2 construct: Tango fusion partner (protease site + GAL4-VP16 transcription factor); expressed in transfected cells; host or cells: Tango S1P4 (EDG6)-bla U-2 OS cells
T2 sequence (O95977 1-384): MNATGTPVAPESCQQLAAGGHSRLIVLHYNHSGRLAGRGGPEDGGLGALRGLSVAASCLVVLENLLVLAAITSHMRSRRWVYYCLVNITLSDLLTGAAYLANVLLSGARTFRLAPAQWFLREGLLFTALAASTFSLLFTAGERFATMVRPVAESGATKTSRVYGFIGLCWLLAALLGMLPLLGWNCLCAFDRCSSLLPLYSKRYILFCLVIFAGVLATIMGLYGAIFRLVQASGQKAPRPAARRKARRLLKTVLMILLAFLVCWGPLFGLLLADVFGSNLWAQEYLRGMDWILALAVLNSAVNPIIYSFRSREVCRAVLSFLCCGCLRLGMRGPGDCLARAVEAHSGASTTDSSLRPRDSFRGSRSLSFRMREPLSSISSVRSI
Description: as §1, §2

[3] = target: T2, S1P4; assay: S1P4 antagonist test, Tango S1P4 (EDG6)-bla U-2 OS cells; type: cell-based; conditions: S1P4 TANGO U-2 OS cell line
Description: as §1, §2

[4] = target: T3, S1P5 (Homo sapiens, UniProt Q9H228); assay: S1P5 antagonist test, Tango S1P5-bla U-2 OS cells; type: cell-based; conditions: S1P5 TANGO U-2 OS cell line
T3 construct: Tango fusion partner (protease site + GAL4-VP16 transcription factor); expressed in transfected cells; host or cells: Tango S1P5-bla U-2 OS cells
T3 sequence (Q9H228 whole entry, the tested form may be a part): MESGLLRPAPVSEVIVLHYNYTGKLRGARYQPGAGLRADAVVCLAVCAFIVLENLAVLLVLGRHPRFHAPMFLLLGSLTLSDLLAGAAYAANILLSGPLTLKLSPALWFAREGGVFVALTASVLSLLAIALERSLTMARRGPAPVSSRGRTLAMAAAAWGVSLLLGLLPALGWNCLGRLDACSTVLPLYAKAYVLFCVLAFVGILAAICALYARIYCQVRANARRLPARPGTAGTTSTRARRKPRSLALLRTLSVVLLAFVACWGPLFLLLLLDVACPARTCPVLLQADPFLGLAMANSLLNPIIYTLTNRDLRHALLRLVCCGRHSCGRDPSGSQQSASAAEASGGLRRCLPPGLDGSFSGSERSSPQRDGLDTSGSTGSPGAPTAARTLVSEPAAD
Description: as §1, §2

[5] = test system: C57BL/6 mice; assay: T, B and NK cell populations in blood, spleen and lymph nodes, FACS; type: in vivo, mouse
Description: S1P receptors are differentially expressed by distinct immune cell populations. Since AD2900 is an antagonist to all S1P receptors, we next evaluated its influence on the localization of different murine lymphocyte populations. To achieve this aim, we performed FACS analysis of the blood (Figure 5A), spleen (Figure 5B), and lymph node cells (Figure 5C) using antibodies against surface markers of T cells, B cells, and NK cells (TCR-β, CD19, and CD49b, respectively). […] The NK cell count was elevated by 55.7% (4.741 ± 0.8621 × 10^6 cells/ml) after a 7-day treatment with AD2900. […] The trend in the B-cell change was opposite to that in the T- and NK cell changes in the lymph nodes.
Figure 5 AD2900 treatment affects the distribution of T cells, B cells, and NK cells in blood, spleen, and peripheral lymph nodes C57BL/6 mice were orally administered with AD2900 or FTY720, as shown in Figure 4. Leukocytes from blood, spleen, and pLNs were collected and stained with TCR-β, CD19, and CD49b fluorescent antibodies and then analyzed by FACS analysis. The percentages of TCR-β+ T cells (left panel), CD19+ B cells (central panel), and CD49b+ NK cells (right panel) of the total leukocytes from blood (A), spleen (B), and pLNs (C) are shown. The results of T and B cells are from 2 days’ experiments. The results of NK cells are from 2 and 7 days’ experiments. All the significances are compared to untreated healthy mice. Results summarize three independent experiments. Results of Student’s t-test:*(P < 0.05, two-tailed test), ** (P < 0.01, two-tailed test), *** (P < 0.001, two-tailed test), **** (P < 0.0001, two-tailed test).
Murine lymphocytes: The phenotype of murine lymphocytes was analyzed by flow cytometry using anti-CD3e-FITC, anti-CD19-PB, anti-CCR7-APC, anti-CD44-FITC, anti-CD62L-APC, and anti-TCR-β-PB (Biolegend, CA, USA).
To eliminate the red blood cells, RBC lysis buffer (Beit Haemek, Israel) or BD FACS lysing solution (BD Biosciences, CA, USA) was added into murine blood and splenocyte samples. Flow cytometry was performed using the MACSQuant® Analyzer (Miltenyi Biotech, Germany), and the data were analyzed using FCS Express V3 software.
C57BL/6 female mice aged 7–8 weeks were obtained from Harlan Laboratories (Jerusalem, Israel). The animal study was conducted under appropriate conditions and was approved by the Institutional Animal Care and Use Committee of the Hebrew University of Jerusalem in accordance with the national laws and regulations for the protection of animals. AD2900 was dissolved in 10% BSA (MP Biomedicals, CA, USA) in DDW at 1 mg/ml and then further diluted in 200 ml water to get final concentrations at 1.8, 2.7, or 3.6 mg/l. AD2900 and FTY720 were supplied ad libitum to the mice for 2 days or 7 days. At the end of the experiment, blood was collected, and the mice were sacrificed and tissues (lymph nodes and spleen) were harvested.

T1 sequence (O95136 whole entry): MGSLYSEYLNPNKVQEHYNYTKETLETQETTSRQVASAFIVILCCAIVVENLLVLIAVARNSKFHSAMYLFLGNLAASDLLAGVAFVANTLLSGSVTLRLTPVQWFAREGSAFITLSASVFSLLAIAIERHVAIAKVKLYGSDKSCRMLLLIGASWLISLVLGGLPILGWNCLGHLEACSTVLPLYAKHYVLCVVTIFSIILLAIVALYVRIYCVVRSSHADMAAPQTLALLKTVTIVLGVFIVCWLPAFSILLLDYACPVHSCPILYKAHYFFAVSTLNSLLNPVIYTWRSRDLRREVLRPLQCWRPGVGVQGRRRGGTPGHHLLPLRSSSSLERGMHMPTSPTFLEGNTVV

Structure (SMILES): CCCCCCCCCCCCCCCCNC(CO)(CO)CO [AD2900]
- pIC50 [1]: 5.49
- pEC50 [2]: < 4.30
- pIC50 [3]: 5.23
- pIC50 [4]: 6.39
- T cells in the blood, value in parentheses ([5]; 1.8 mg/l, 2-day treatment): 0.7488 ± 0.1641 × 10^6 cells/ml
- increase of average count of T cells in the blood ([5]; 1.8 mg/l, 2-day treatment): 81.9%
- T cells in the lymph nodes, value in parentheses ([5]; 2-day treatment): 0.7411 ± 0.2217 × 10^5 cells/ml
- T cells in the spleen, value in parentheses ([5]; 2-day treatment): 11.79 ± 3.64 × 10^6 cells/ml
- decrease of T-cell average count in the lymph nodes ([5]; 2-day treatment): 30%
- increase of average count of T cells in the spleen ([5]; 2-day treatment): 96.7%
- NK cells in the blood, value in parentheses ([5]; 7-day treatment): 0.3987 ± 0.0706 × 10^6 cells/ml
- NK cells in the lymph nodes, value in parentheses ([5]; 7-day treatment): 0.07852 ± 0.03572 × 10^5 cells/ml
- NK cells in the spleen, value in parentheses ([5]; 7-day treatment): 4.741 ± 0.8621 × 10^6 cells/ml
- decrease of NK cell count in the lymph nodes ([5]; 7-day treatment): 20.8%
- elevation of NK cell count in the spleen ([5]; 7-day treatment): 55.7%
- increase of average NK cell count in the blood ([5]; 7-day treatment): 52.1%
- B cell count in all the organs ([5]; blood, spleen, lymph nodes): not significantly influenced

Reference: paper PMC5581131, “The novel sphingosine-1-phosphate receptors antagonist AD2900 affects lymphocyte activation and inhibits T-cell entry into the lymph nodes” (Oncotarget, 2017)
